Patent US5703087A, “Phenyl indole compounds” (H. Lundbeck A/S, priority 1993, dated 1997)
Structures can show the parent of a compound that is named as a salt. Where two headings read alike, the source gives them in different places.

Experiments:
[1] = Catalepsy in rats (vertical wire mesh); conditions: rat, in vivo, 1-6 hours, sc
Procedure: Evaluation of catalepsy is made according to Arnt (Eur. J. Pharmacol. 90, 47-55 (1983)). Test compound is given s.c. in different doses. The rat (170-240 g) is placed on a vertical wire mesh (mesh diameter 12 mm). The rat is considered cataleptogenic if it remains immobile for more than 15 sec. The maximum number of rats showing catalepsy within the first 6 hours is recorded for each dose group. The results are recorded in fractions and an ED50 value is calculated by means of log-probit analysis.

[2] = system: 5-HT2; experiment: Quipazine inhibition (quipazine induced head twitches in rats); type: in vivo; conditions: Rattus norvegicus
Text: Quipazine is a 5-HT2 agonist, which induces head twitches in rats.

[3] = molecular target: T1, 5-HT2 receptors (Rattus norvegicus, UniProt P14842); experiment: Inhibition of 3H-Ketanserin binding to 5-HT2 receptors in membranes from rat cortex in vitro; conditions: 0,5 nM 3H-ketanserin
T1 construct: 5-HT2 receptors in membranes from rat; from tissue; host or cells: rat cortex membranes
Procedure: Inhibition of ^3 H-Ketanserin Binding To 5-HT2 Receptors in […] Cortex in vitro
By this method the inhibition by drugs of the binding of ^3 H-Ketanserin (0,5 nM) to 5-HT2 receptors in membranes from rat is determined in vitro. The method is described in Hyttel, Pharmacology & Toxicology 61, 126-129, 1987.

[4] = molecular target: T2, dopamine D2 receptors (Rattus norvegicus, UniProt P61169); experiment: Inhibition of 3H-Spiperone binding to dopamine D2 receptors in rat corpus striatum in vitro; conditions: 0.5 nM 3H-spiperone, rat corpus striatum membranes, read-out: Dopamine D2 binding [^3 H]-spiroperidol
T2 construct: dopamine D2 receptors in membranes from rat corpus striatum; from tissue; host or cells: rat corpus striatum membranes
Procedure: Inhibition of ^3 H-Spiperone Binding to Dopamine D2 Receptors in Rat Corpus Striatum in vitro
By this method the inhibition by drugs of the binding of ^3 H-spiperone (0.5 nM) to dopamine D2 receptors in membranes from rat corpus striatum is determined in vitro.

[5] = in vivo; cited from earlier work
[6] = rats, 2 hours, sc, read-out: Quipazine inhibition 2 hours (sc) ED50
[7] = rats, 24 hours, po, read-out: Quipazine inhibition 24 hours (po) ED50
[8] = po, 24 h, read-out: Quipazine inhibition 24 hours (po) ED50
[9] = sc, 2 h, read-out: Quipazine inhibition 2 hours (sc) ED50

T2 sequence (P61169 whole entry): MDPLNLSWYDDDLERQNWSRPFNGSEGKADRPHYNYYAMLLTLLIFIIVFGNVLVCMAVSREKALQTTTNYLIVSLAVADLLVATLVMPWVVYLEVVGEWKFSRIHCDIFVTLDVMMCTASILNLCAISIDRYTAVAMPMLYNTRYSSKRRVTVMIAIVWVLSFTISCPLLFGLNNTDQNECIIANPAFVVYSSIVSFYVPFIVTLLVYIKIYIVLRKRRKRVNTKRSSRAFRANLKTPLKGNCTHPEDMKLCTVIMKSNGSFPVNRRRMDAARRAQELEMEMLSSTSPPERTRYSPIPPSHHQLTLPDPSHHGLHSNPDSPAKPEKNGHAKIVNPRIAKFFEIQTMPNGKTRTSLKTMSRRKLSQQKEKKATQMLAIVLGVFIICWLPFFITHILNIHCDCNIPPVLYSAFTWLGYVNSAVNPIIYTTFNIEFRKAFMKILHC
T1 sequence (P14842 whole entry): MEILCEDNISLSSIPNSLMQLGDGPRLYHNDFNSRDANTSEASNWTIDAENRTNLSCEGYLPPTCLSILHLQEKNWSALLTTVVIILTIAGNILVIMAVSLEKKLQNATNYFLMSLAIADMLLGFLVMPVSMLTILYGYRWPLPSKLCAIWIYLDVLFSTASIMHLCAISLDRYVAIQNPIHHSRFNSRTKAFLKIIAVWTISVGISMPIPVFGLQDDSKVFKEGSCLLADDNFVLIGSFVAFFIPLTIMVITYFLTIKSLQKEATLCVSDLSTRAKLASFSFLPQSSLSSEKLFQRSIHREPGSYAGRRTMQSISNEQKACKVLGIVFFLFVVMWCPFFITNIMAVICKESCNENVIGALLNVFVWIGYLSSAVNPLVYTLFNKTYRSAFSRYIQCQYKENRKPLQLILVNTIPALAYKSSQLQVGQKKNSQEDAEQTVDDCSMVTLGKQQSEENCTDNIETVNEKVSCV

| Compound | ED50 at 6 h [1] [µmol/kg] | ED50 [2, 6] [µmol/kg] | ED50 [2, 7] [µmol/kg] | IC50 [3] [nM] | IC50 [4] [nM] | ED50 [2, 8] [µmol/kg] | ED50 [2, 9] [µmol/kg] | anxiolytic activity [5] |
| --- | --- | --- | --- | --- | --- | --- | --- | --- |
| [2H]C1([2H])CNC(=O)N1CCN1CCC(c2cn(-c3ccc(F)cc3)c3ccc(Cl)cc23)CC1 [Compound 6, 1-[2-[4-[5-Chloro-1-(4-fluorophenyl)-1H-indol-3-yl]piperidin-1-yl]ethyl]-5,5-dideuteroimidazolidin-2-one] | 30 | 0.02 | 0.012 |  |  |  |  |  |
| [2H]C1([2H])NC(=O)N(CCN2CCC(c3cn(-c4ccc(F)cc4)c4ccc(Cl)cc34)CC2)C1([2H])[2H] [Compound 4, 1-[2-[4-[5-Chloro-1-(4-fluorophenyl)-1H-indol-3-yl]piperidin-1-yl]ethyl]-4,4,5,5-tetradeuteroimidazolidin-2-one] | > 45 | 0.07 | < 0.0056 |  |  |  |  |  |
| COC1CNC(=O)N1CCN1CCC(c2cn(-c3ccc(F)cc3)c3ccc(Cl)cc23)CC1 (centres unmarked) [Compound 3, 1-[2-[4-[5-chloro-1-(4-fluorophenyl)-1H-indol-3-yl]piperidin-1-yl]ethyl]-5-methoxyimidazolidin-2-one, fumarate] | 17 |  |  | 1.5 | 13 |  |  |  |
| O=C1NCC(O)N1CCN1CCC(c2cn(-c3ccc(F)cc3)c3ccc(Cl)cc23)CC1 (centres unmarked) [Compound 1, 1-[2-[4-[5-chloro-1-(4-fluorophenyl)-1H-indol-3-yl]piperidin-1-yl]ethyl]-5-hydroxyimidazolidin-2-one] | 39 |  |  | 1.4 | 5.5 | 0.085 | 0.099 |  |
| CC1(C)CNC(=O)N1CCN1CCC(c2cn(-c3ccc(F)cc3)c3ccc(Cl)cc23)CC1 [Compound 9, 1-[2-[4-[5-Chloro-1-(4-fluorophenyl)-1H-indol-3-yl]piperidin-1-yl]ethyl]-5,5-dimethylimidazolidin-2-one] | > 43 |  |  | 1.7 | 14 | 0.078 | 0.13 |  |
| CC1(C)CN(CCN2CCC(c3cn(-c4ccc(F)cc4)c4ccc(Cl)cc34)CC2)C(=O)N1 [Compound 8, 1-[2-[4-[5-Chloro-1-(4-fluorophenyl)-1H-indol-3-yl]piperidin-1-yl]ethyl]-4,4-dimethylimidazolidin-2-one] | > 43 |  |  | 2 | 18 | 0.013 | 0.035 |  |
| O=C1NC2(CCCC2)CN1CCN1CCC(c2cn(-c3ccc(F)cc3)c3ccc(Cl)cc23)CC1 [Compound 12, 3-[2-[4-[5-Chloro-1-(4-fluorophenyl)-1H-indol-3-yl]piperidin-1-yl]ethyl]-1,3-diazaspiro[4.4]nonan-2-one] | > 40 |  |  | 4.7 | 19 | 0.037 | 0.076 |  |
| O=C1NCCN1CCN1CCC(c2cn(-c3ccc(F)cc3)c3ccc(Cl)cc23)CC1 [sertindole, 1-[2-[4-[5-chloro-1-(4-fluorophenyl)-1H-indol-3-yl]piperidin-1-yl]ethyl]-2-imidazolidinone, reference compound] | > 91 | 0.035 | 0.039 |  |  |  |  | found to show anxiolytic activity |
| O=C1NC(O)C(O)N1CCN1CCC(c2cn(-c3ccc(F)cc3)c3ccc(Cl)cc23)CC1 (centres unmarked) [Compound 11, 1-[2-[4-[5-chloro-1-(4-fluorophenyl)-1H-indol-3-yl]piperidin-1-yl]ethyl]-4,5-dihydroxyimidazolidin-2-one] |  |  |  | 2.5 | 18 |  |  |  |
| [2H]C1([2H])CN(CCN2CCC(c3cn(-c4ccc(F)cc4)c4ccc(Cl)cc34)CC2)C(=O)N1 [Compound 5, 1-[2-[4-[5-Chloro-1-(4-fluorophenyl)-1H-indol-3-yl]piperidin-1-yl]ethyl]-4,4-dideuteroimidazolidin-2-one] | > 45 | 0.055 | 0.0097 |  |  |  |  |  |
| O=C1NCC2(CCCC2)N1CCN1CCC(c2cn(-c3ccc(F)cc3)c3ccc(Cl)cc23)CC1 [Compound 13, 1-[2-[4-[5-Chloro-1-(4-fluorophenyl)-1H-indol-3-yl]piperidin-1-yl]ethyl]-1,3-diazaspiro[4.4]nonan-2-one] | > 40 |  |  | 4.5 | 30 | 0.45 | 0.088 |  |
| CC1(C)C(=O)NC(=O)N1CCN1CCC(c2cn(-c3ccc(F)cc3)c3ccc(Cl)cc23)CC1 [Compound 10, 1-[2-[4-[5-Chloro-1-(4-fluorophenyl)-1H-indol-3-yl]piperidin-1-yl]ethyl]-5,5-dimethylimidazolidin-2,4-dione] | > 30 |  |  | 12 | 20 |  | 0.33 |  |
| O=C1NC(O)C(=O)N1CCN1CCC(c2cn(-c3ccc(F)cc3)c3ccc(Cl)cc23)CC1 (centres unmarked) [Compound 7a, 1-[2-[4-[5-Chloro-1-(4-fluorophenyl)-1H-indol-3-yl]piperidin-1-yl]ethyl]-4-hydroxyimidazolidin-2,5-dione] | > 42 |  |  | 6.6 | 18 |  |  |  |
| O=C1NC(=O)N(CCN2CCC(c3cn(-c4ccc(F)cc4)c4ccc(Cl)cc34)CC2)C1O (centres unmarked) [Compound 7b, 1-[2-[4-[5-chloro-1-(4-fluorophenyl)-1H-indol-3-yl]piperidin-1-yl]ethyl]-5-hydroxyimidazolidin-2,4-dione] | > 21 |  |  | 9.8 | 23 |  |  |  |
